Laboratory results published in patent publication US8039623B2, “Inhibitors of serine proteases, particularly HCV NS3-NS4A protease” (Vertex Pharmaceuticals Incorporated, priority 2003, dated 2011).

Target: HCV NS3-NS4A protease (tNS3 with KK4A) (Hepatitis C virus genotype 1a, UniProt P27958)
Assay: HCV Enzyme Assay Protocol (HPLC microbore separation of 5AB substrate and products)
Format: biochemical
Settings: 25 nM tNS3, 25 μM KK4A, 25 μM 5AB substrate, 20 min at 30° C.; read-out: Ki range
Protocol: HCV Enzyme Assay Protocol
HPLC Microbore method for separation of 5AB substrate and products
• NH2-Glu-Asp-Val-Val-(alpha)Abu-Cys-Ser-Met-Ser-Tyr-COOH
A stock solution of 20 mM 5AB (or concentration of your choice) was made in DMSO w/0.2M DTT. This was stored in aliquots at −20° C.
Buffer: 50 mM HEPES, pH 7.8; 20% glycerol; 100 mM NaCl
Total assay volume was 100 μL
The buffer, KK4A, DTT, and tNS3 were combined; distributed 78 μL each into wells of 96 well plate. This was incubated at 30° C. for ˜5-10 min.
2.5 μL of appropriate concentration of test compound was dissolved in DMSO (DMSO only for control) and added to each well. This was incubated at room temperature for 15 min.
Initiated reaction by addition of 20 μL of 250 μM 5 AB substrate (25 μM concentration is equivalent or slightly lower than the Km for 5 AB).
Incubated for 20 min at 30° C.
Terminated reaction by addition of 25 μL of 10% TFA
Transferred 120 μL aliquots to HPLC vials
Separated SMSY product from substrate and KK4A by the following method:
Microbore Separation Method:
Instrumentation: Agilent 1100
• Degasser G1322A • Binary pump G1312A • Autosampler G1313A • Column thermostated chamber G1316A • Diode array detector G1315A Column • Phenonex Jupiter; 5 micron C18; 300 angstroms; 150×2 mm; P/O • 00F-4053-B0 • Column thermostat: 40 C • Injection volume: 100 μL • Solvent A=HPLC grade water+0.1% TFA • Solvent B=HPLC grade acetonitrile+0.1% TFA
• Stop time: 17 min • Post-run time: 10 min.

Chain of HCV NS3-NS4A protease (tNS3 with KK4A) (P27958 1658-1711): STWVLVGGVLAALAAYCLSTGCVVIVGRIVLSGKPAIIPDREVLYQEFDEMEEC
Chain of HCV NS3-NS4A protease (tNS3 with KK4A) (P27958 1027-1208): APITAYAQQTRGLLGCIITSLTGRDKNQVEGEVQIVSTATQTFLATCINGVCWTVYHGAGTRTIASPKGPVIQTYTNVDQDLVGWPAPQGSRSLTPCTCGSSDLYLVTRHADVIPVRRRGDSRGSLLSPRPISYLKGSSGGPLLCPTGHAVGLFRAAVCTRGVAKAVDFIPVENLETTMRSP

| Structure (SMILES) | Ki |
| --- | --- |
| CCC[C@H](NC(=O)[C@@H]1CC2(CN1C(=O)[C@@H](NC(=O)[C@@H](NC(=O)c1cnccn1)C1CCCCC1)C(C)(C)C)SCCCS2)C(=O)NS(=O)(=O)c1ccccc1 [Compound 1] | > 5 µM |
| CCC[C@H](NC(=O)[C@@H]1C[C@@H](Oc2ccc(Cl)cn2)CN1C(=O)[C@@H](NC(=O)[C@@H](NC(=O)c1cnccn1)C1CCCCC1)C(C)(C)C)C(=O)NS(=O)(=O)c1ccccc1 [Compound 2] | > 5 µM |
| CCC[C@H](NC(=O)[C@@H]1CC2(CN1C(=O)[C@@H](NC(=O)[C@@H](NC(=O)c1[nH]c(C)c(C)c1C(C)=O)C1CCCCC1)C(C)(C)C)SCCCS2)C(=O)NS(=O)(=O)c1ccccc1 [Compound 3] | 1 to 5 µM |
